Experimental findings from patent US20230357134A1, “AGENTS FOR USE IN THE TREATMENT OF AMYLOIDOSIS” (UCL BUSINESS LTD, priority 2020, published 2023) are described below.

One experiment addresses T1, isolated wild type TTR (Homo sapiens, UniProt P02766).
T1 construct: the non-covalently associated protomers, of mass 13,761, each contain 127 residues; His6 (N); TEV cleavage site (N); made in house; host or cells: E. coli BL21 (DE3)
The experiment in a line: Displacement of 125I-T4 from isolated wild type TTR in buffer. To be noted: concentration of ligand reducing binding of 125I-T4 by TTR by 50%; 125 nM TTR, pH 8.0, overnight 4° C.; mean of at least 3 replicates; read-out: D50 buffer. The protocol:
3. Evaluation of Ligand Activity Based on Capacity to Displace ^125I-Thyroxine (T4) from TTR in Buffer/Human Plasma 3.1 Displacement of ^125I-T4 from Isolated Wild Type TR.
Competition of ligands with T4 for binding by TTR was assayed quantitatively by a previously described procedure (Kolstoe et al., 2010). Briefly, a solution of 125 nM TTR in 0.1 M Tris-HCl, 0.1 M NaCl and 0.001 M EDTA buffer, pH 8.0, was incubated overnight at 4° C. in the presence of 1.07 nM ^125I T4 (1,200 μCi/μg, 200 μCi/ml, Perkin Elmer) and increasing concentrations of inhibitor (0-5 μM) in 40 μl final volume. ^125I T4 bound by TTR was separated from unbound T4 by gel filtration chromatography using Micro Bio Spin 6 columns (Bio-Rad) previously equilibrated with the reaction buffer containing 1% w/v BSA. After counting with a Wizard2 gamma counter (Perkin-Elmer) for 60 s, percentage binding was plotted against the logarithm of the inhibitor concentration, and D50 (concentration of ligand reducing the binding of T4 by TTR by 50%) was determined using a four parameters dose-response curve with GraphPad Prism 5 (Table 1).
(In general: Loss of bound radioactivity is the signal in a displacement assay; it reports binding, not function.)

Experiment [1] deals with T2, TTR in whole human plasma (Homo sapiens, UniProt P02766).
T2 construct: TTR in whole plasma, from individuals homozygous for wild type TTR; from tissue; host or cells: whole human plasma
The experiment in a line: Displacement of 125I-T4 from TTR in normal human plasma. Type of experiment: binding. To be noted: wild type TTR, 30 min 37° C. with ligand, immunoprecipitation, mean of at least 3 replicates; for IC50: read-out: D50 plasma. The protocol:
3.2 Displacement of ^125-T4 from TTR in Normal Human Plasma.
The displacement of ^125I-T4 from TTR in whole plasma, from individuals homozygous for wild type TTR, was studied by incubating plasma with each ligand at increasing concentrations for 30 min at 37° C., further incubation with […] followed by measurement of the radioactivity in the immunoprecipitate obtained with anti-TTR antibodies. […] Percentage binding was plotted against the logarithm of the inhibitor concentration, and D50 (concentration of ligand reducing the binding of T4 by TTR by 50%) was determined using a four parameter dose-response curve with GraphPad Prism 5 (Table 1).

For experiment [2], the target named is T3, recombinant Val122Ile TTR (Homo sapiens, UniProt P02766, V142I).
T3 construct: the non-covalently associated protomers, of mass 13,761, each contain 127 residues; His6 (N); TEV cleavage site (N); made in house; host or cells: E. coli BL21 (DE3)
The experiment in a line: Mechano-enzymatic fibrillogenesis, TTR aggregation by turbidity at 400 nm. Type of experiment: biochemical. To be noted: equimolar ligand, Val122Ile TTR 9 μM, trypsin, 96 h; 100 % = protein without ligand; mean (SD). The procedure: (§1) Briefly, fibrillogenesis of recombinant Val122Ile TTR at 0.5 mg/ml (9 μM) in PBS, pH 7.4 was carried out in glass vials stirred at 1,400 rpm (IKA magnetic stirrer) and 37° C. in the presence and in the absence of trypsin (5 ng/μl). […] Each ligand was tested at 4 different concentrations (4.5, 9, 18, 36 μM respectively) corresponding to the following drug/TTR molar ratios of 0.5:1, 1:1, 2:1 and 4:1. Several dilutions of the drug stock solutions were made in order to add the same volume of DMSO to each sample. Control samples without drug were added with the same volume of DMSO only. To allow complete binding of ligand by TTR each sample was incubated for 30 min at 37° C. before addition of trypsin. Spectrophotometric turbidity at 400 nm was used to monitor fibril formation over time until it reached a plateau at 96 h. Aggregation of TTR in the presence of equimolar ligand concentrations was quantified as spectrophotometric turbidity at 400 nm as a proportion of 100% for aggregation of the protein in the absence of ligands (Table 2).

The target of experiment [3] is T3, recombinant Val122Ile TTR. The experiment in a line: Mechano-enzymatic fibrillogenesis, TTR amyloid by ThT emission fluorescence. Type of experiment: biochemical. The settings on record: equimolar ligand, 96 h pellets, normalized to 100 % without ligand, mean (SD). The procedure: as §1
At the end of the 96 h aggregation, pellets were harvested from each protein sample by 20 min centrifugation at 11,600 g, thoroughly rinsed with PBS to remove non-bound ligand, resuspended with 100 μl PBS, pH 7.4 containing 10 μM ThT in Costar 96-well black-wall plates. Bottom fluorescence values (excitation 440 nm, emission 480 nm) were recorded using a BMG LABTECH FLUostar Omega plate reader. Each value was normalized to the ThT signal of the TTR sample without ligand (Table 2)

Experiment [4] has as its target T4, native recombinant wild type TTR (Homo sapiens, UniProt P02766).
T4 construct: the non-covalently associated protomers, of mass 13,761, each contain 127 residues; His6 (N); TEV cleavage site (N); made in house; host or cells: E. coli BL21 (DE3)
The experiment in a line: Kinetics of ligand binding by TTR (stopped flow quenching of intrinsic fluorescence). The settings on record: TTR 1 μM with equimolar ligand, 37° C., PBS pH 7.4; t½ = ln 2/k. The protocol: Ligand binding by native TTR quenches the intrinsic fluorescence of the protein. After mixing of ligands with TTR in solution, monitoring emission of the intrinsic fluorescence over time defines the rate at which the ligand is bound by the protein. The fast phase of these binding kinetics was characterized using an SFM 3000 stopped flow device coupled to a MOS500 spectrometer with a fluorescence detection system (Bio Logic, Claix, France) and a cell path length of 1.5 mm. TTR and ligands at 37° C. were mixed at final concentrations of 1 μM each in PBS pH 7.4 containing 0.9% v/v DMSO, and were excited at 280 nm for measurement of total fluorescence emission over 325 nm using a cut off filter. Kinetic data were acquired as the average of at least 3 experimental mixings and fitted to a first order reaction using the general formula y(t)=at +b+C exp (−kt), where y(t) is the observed fluorescence, a (slope) and b (offset) corresponding to the baseline. C and k are, respectively, amplitude and rate constant of the observed fluorescence change. Data were analysed using the Biokine software and values of half-life time (t½) correspond to ln 2/k. (Table 3).

For `Cc1n[nH]c(COCCCOCCCOc2c(Cl)cc(CCC(=O)O)cc2Cl)c1CCCOc1cc(C(=O)O)ccc1F` [Compound B9, 3-[3-[5-[3-[3-[4-(2-carboxyethyl)-2,6-dichloro-phenoxy]propoxy]propoxymethyl]-3-methyl-1H-pyrazol-4-yl]propoxy]-4-fluorobenzoic acid], the IC50 at isolated wild type TTR was determined as 1.35 µM. The D50 plasma result in experiment [1] is “no binding”. Moreover, the “% Aggregation (Turbidity method)” value in experiment [2] was 17.1 (0.66) %. Besides, in experiment [3], the “% Aggregation (Fluorescence method)” value is 9.34 (4.36) %.
As to `O=C(O)CCc1cc(Cl)c(OCC[C@@H](O)[C@H](O)CCOc2c(Cl)cc(-c3nc4ccc(C(=O)O)cc4o3)cc2Cl)c(Cl)c1` [Compound B16, 2-[4-[(3R,4R)-6-[4-(2-carboxyethyl)-2,6-dichloro-phenoxy]-3,4-dihydroxy-hexoxy]-3,5-dichloro-phenyl]-1,3-benzoxazole-6-carboxylic acid], the IC50 at isolated wild type TTR was 0.09 µM; in experiment [1] it was 14.1 µM. Moreover, the “% Aggregation (Turbidity method)” value in experiment [2] is on record as 4.42 (1.45) %. Further, the “% Aggregation (Fluorescence method)” value in experiment [3] is given as 4.76 (3.13) %. The “T 1/2” value in experiment [4] was found to be 1.415 s.
`O=C(O)CCc1cc(Cl)c(OCCOCCCCOc2c(Cl)cc(Nc3ccccc3C(=O)O)cc2Cl)c(Cl)c1` [Compound B2, 2-[4-[4-[2-[4-(2-carboxyethyl)-2,6-dichloro-phenoxy]ethoxy]butoxy]-3,5-dichloro-anilino]benzoic acid]: the IC50 is 0.1 µM at isolated wild type TTR and 2.59 µM in experiment [1]. Besides, the “% Aggregation (Turbidity method)” value in experiment [2] is 5.25 (1.68) %. Also, the “% Aggregation (Fluorescence method)” value in experiment [3] is 4.36 (1.51) %.
As to `O=C(O)CCc1cc(Cl)c(OCCCOCCCOc2ccc(-c3nc4ccc(C(=O)O)cc4o3)cc2Cl)c(Cl)c1` [Compound B15, 2-[4-[3-[3-[4-(2-carboxyethyl)-2,6-dichloro-phenoxy]propoxy]propoxy]-3-chlorophenyl]-1,3-benzoxazole-6-carboxylic acid], the values for the IC50 (on isolated wild type TTR; in experiment [1]) were 0.1 µM and 61 µM, respectively. The “% Aggregation (Turbidity method)” value in experiment [2] is 5.56 (0.75) %. Besides, the “% Aggregation (Fluorescence method)” value in experiment [3] was 12.7 (5.73) %.
For `O=C(O)CCc1cc(Cl)c(OCC[C@@H](O)[C@H](O)CCOc2ccc(-c3nc4ccc(C(=O)O)cc4o3)cc2Cl)c(Cl)c1` [Compound B17, 2-[4-[(3R,4R)-6-[4-(2-carboxyethyl)-2,6-dichloro-phenoxy]-3,4-dihydroxy-hexoxy]-3-chloro-phenyl]-1,3-benzoxazole-6-carboxylic acid], the IC50 at isolated wild type TTR is 0.1 µM; in experiment [1] it was 17.3 µM. For the same compound, in experiment [2], the “% Aggregation (Turbidity method)” value was 4.52 (1.08) %. Further, the “% Aggregation (Fluorescence method)” value in experiment [3] is listed as 3.86 (2.29) %.
Taken in the same sequence, the figures for `O=C(O)CCc1cc(Cl)c(OCC[C@H](O)[C@@H](O)CCOc2c(Cl)cc(Nc3ccccc3C(=O)O)cc2Cl)c(Cl)c1` [Compound B4, 2-[4-[(3S,4S)-6-[4-(2-carboxyethyl)-2,6-dichloro-phenoxy]-3,4-dihydroxy-hexoxy]-3,5-dichloro-anilino]benzoic acid] were 0.07 µM, 4.4 µM, 3.52 (1.14) % and 4.74 (2.93) %.
As to `O=C(O)CCc1ccc(OCC[C@@H](O)[C@H](O)CCOc2c(Cl)cc(Nc3ccccc3C(=O)O)cc2Cl)c(Cl)c1` [Compound B21, 2-[4-[6-[4-(2-carboxyethyl)-2-chloro-phenoxy]-3,4-dihydroxy-hexoxy]-3,5-dichloro-anilino]benzoic acid], the IC50 at isolated wild type TTR stood at 0.07 µM; in experiment [1], 4.1 µM. Also, in experiment [2], the “% Aggregation (Turbidity method)” value is 6.43 (3.09) %. The “% Aggregation (Fluorescence method)” value in experiment [3] was 8.31 (6.09) %.
On the same counts, the results for `O=C(O)CCOCCCOCCCOCCCOc1c(Cl)cc(Nc2ccccc2C(=O)O)cc1Cl` [Compound B6, 2-[4-[3-[3-[3-(2-carboxyethoxy)propoxy]propoxy]propoxy]-3,5-dichloro-anilino]benzoic acid] are 1.17 µM, 39.7 µM, 6.24 (1.71) % and 12.0 (4.44) %.
With `O=C(O)CCc1cc(Cl)c(OCOCCCOc2c(Cl)cc(Nc3ccccc3C(=O)O)cc2Cl)c(Cl)c1` [Compound B8, 2-[4-[3-[[4-(2-carboxyethyl)-2,6-dichloro-phenoxy]methoxy]propoxy]-3,5-dichloro-anilino]benzoic acid], the IC50 at isolated wild type TTR amounted to 2.06 µM. For the same compound, in experiment [1], the D50 plasma result was “no binding”. In experiment [2], the “% Aggregation (Turbidity method)” value is recorded as 6.35 (2.73) %. Further, the “% Aggregation (Fluorescence method)” value in experiment [3] is 11.7 (3.67) %.
On to `O=C(O)CCc1cc(Cl)c(OCC[C@@H](O)[C@H](O)CCOc2ccc(Nc3ccccc3C(=O)O)cc2Cl)c(Cl)c1` [Compound B20, 2-[4-[(3R,4R)-6-[4-(2-carboxyethyl)-2,6-dichloro-phenoxy]-3,4-dihydroxy-hexoxy]-3-chloro-anilino]benzoic acid], for which the figures for the IC50 (at isolated wild type TTR; in experiment [1]) were 0.07 µM and 7 µM, respectively. For the same compound, the “% Aggregation (Turbidity method)” value in experiment [2] was 11.6 (8.30) %. In experiment [3], the “% Aggregation (Fluorescence method)” value is reported as 8.54 (6.10) %.
Regarding `O=C(O)CCc1cc(Cl)c(OCCCOCCOc2c(Cl)cc(Nc3cnncc3C(=O)O)cc2Cl)c(Cl)c1` [Compound B24, 5-[4-[2-[3-[4-(2-carboxyethyl)-2,6-dichloro-phenoxy]propoxy]ethoxy]-3,5-dichloro-anilino]pyridazine-4-carboxylic acid], the IC50 on isolated wild type TTR is 0.14 µM; in experiment [1], 7.6 µM. Further, in experiment [2], the “% Aggregation (Turbidity method)” value is given as 6.60 (2.40) %. The “% Aggregation (Fluorescence method)” value in experiment [3] is 10.6 (10.5) %.
For `O=C(O)CCc1cc(Cl)c(OCCCOCCCOc2c(Cl)cc(-c3nc4ccc(C(=O)O)cc4o3)cc2Cl)c(Cl)c1` [Compound B7, 2-[4-[3-[3-[4-(2-carboxyethyl)-2,6-dichloro-phenoxy]propoxy]propoxy]-3,5-dichloro-phenyl]-1,3-benzoxazole-6-carboxylicacid], the IC50 amounted to 0.1 µM at isolated wild type TTR and 18.4 µM in experiment [1]. Further, the “% Aggregation (Turbidity method)” value in experiment [2] was 4.99 (1.88) %. Also, the “% Aggregation (Fluorescence method)” value in experiment [3] is given as 8.23 (2.61) %.
